Measurements taken from patent US20250134828A1, “MOLECULAR SOLID SUSPENSIONS FOR TRANSDERMAL DRUG DELIVERY” (Starton Therapeutics, Inc., priority 2023, published 2025).
Where two headings read alike, the source gives them in different places.

Tests used:
[1] = cited from earlier work; for Water Sol: Table 2
[2] = In vitro permeation (flux) test, modified Franz vertical diffusion cell, Strat-M synthetic membrane; type: in vitro ADME
Procedure: For in vitro permeation testing, the prepared transdermal formulations in the following examples were subjected to a flux (in vitro permeation) test as follows with either full-split thickness human cadaver skin or Strat-M® synthetic membrane. The full-split thickness human cadaver skin is prepared by thawing at room temperature in DI water, after which it is placed into a 55° C. water bath for a few minutes. After removal from elevated temperature water bath, the stratum corneum layer is removed, inspected, blotted, and cut into suitable sized samples for placement on a modified Franz vertical diffusion cell. Meanwhile, the Strat-M® synthetic membrane is utilized as instructed by the Millipore-Sigma instruction guide on its use. The patches are die cut to a 5/16″ diameter (˜0.5 cm^2) and affixed to the skin with use of an overlay to secure patch to skin. Receiver media is either standard saline (0.9% NaCl in DI water) or a fixed concentration (1%-5%) of povidone in DI Water. Sample volume is 5 mL, Franz cell volume is 5 mL. […] Actual patch size is 0.5 cm^2 with an effective flux area of about 0.6 cm^2. Aliquots taken are analyzed by HPLC method for each independent API. Typically, 3-5 replicates per formulation are performed to ensure adequate statistical significance is obtained for each study.

[3] = type: in vitro ADME
[4] = Drug product stability: potency and degradation products by relative retention time, liquid chromatography; type: physicochemical; settings: with panthenol and/or other humectants; long term stability studies at room temperature and above 40° C.
Description: In Example 9, the effect of the incorporation of a humectant (e.g., panthenol) into the molecular solid suspension on the API stability and permeability is shown. […] In the tables below, TDS-009 includes 8 wt. % LLD, 5 wt. % Panthenol, 10% Poloxamer P407, 5 wt. % crospovidone and 22.5 wt. % Brij L4 in the presence of 49.5 wt. % DuroTak 87-4098 acrylic PSA, while TDS-011 is the same as TDS-009 without presence of 5 wt. % Panthenol, making up for the 5 wt. % difference with additional DuroTak 87-4098 acrylic PSA for a total of 54.5 wt. %.
Generally, the incorporation of panthenol into the molecular solid suspension results in a 10-fold reduction in hydrolytic degradation.
Each of the above formulations was protected from light, but not from ambient storage conditions of about 21° C. and ambient relative humidity.

Structure (SMILES): Clc1cccc(Cl)c1N=C1NCCN1 [Clonidine]
- Water Sol [1]: ~1 mg/mL

Structure (SMILES): C[C@@H]1C[C@H]2[C@@H]3CCC4=CC(=O)C=C[C@]4(C)[C@@]3(F)[C@@H](O)C[C@]2(C)[C@@]1(O)C(=O)CO [dexamethasone]
- increase in slope (average flux and cumulative flux) ([2]; 5 wt. % dexamethasone, 5 wt. % Kollidon CLM, 20 wt. % Laureth-4, 70 wt. % Durotak 87-4098 vs comparators, FIGS. 9-10): almost an infinite increase

Structure (SMILES): Nc1cccc2c1CN(C1CCC(=O)NC1=O)C2=O (centres unmarked) [lenalidomide]
- observed flux rate ([2]; 4 wt. % drug formulation, FIGS. 13-14): 2.4 μg/cm^2/hr
- average flux rate ([2]; 6 wt. % lenalidomide without panthenol, FIGS. 13-14): 4.2 μg/cm^2/hr
- average flux rate ([2]; 6 wt. % lenalidomide without panthenol, FIGS. 15-16): 5.1 μg/cm^2/hr
- overall permeation relative to same formulation excluding panthenol ([2]; 6 wt. % lenalidomide, 5 wt. % panthenol, FIGS. 13-14): about 1.2 times
- overall permeation relative to same formulation excluding panthenol ([2]; 6 wt. % lenalidomide, 5 wt. % panthenol, FIGS. 15-16): about 1.5 times
- average flux rate ([2]; 6 wt. % lenalidomide, 5 wt. % panthenol, after about the 8 hour time point, FIGS. 13-14): 5.4 μg/cm^2/hr
- average flux rate ([2]; 6 wt. % lenalidomide, 5 wt. % panthenol, after about the 8 hour time point, FIGS. 15-16): 7.5 μg/cm^2/hr
- average flux rate ([2]; 10 wt. % lenalidomide without panthenol, FIGS. 11-12): 3.4 μg/cm^2/hr
- overall permeation relative to same formulation excluding panthenol ([2]; 10 wt. % lenalidomide, 5 wt. % panthenol, FIGS. 11-12): about 1.4 times
- average flux rate ([2]; 10 wt. % lenalidomide, 5 wt. % panthenol, after about the 8 hour time point, FIGS. 11-12): 4.7 μg/cm^2/hr
- average flux ([2]; HLB below 12 surfactants (O3, O5) with poloxamer P407 vs without poloxamer, FIG. 21): increased
- average flux ([2]; at 24 hours, with both humectant and high HLB nonionic surfactant (panthenol and P407), low HLB surfactant O3, FIG. 17): about 6 μg/cm^2/hr
- average flux ([2]; formulations with greater than about 15 wt. % O3 vs about 15 wt. % or less, FIG. 19): significantly higher
- average flux ([3]; formulations with greater than about 15 wt. % O3 vs about 15 wt. % or less, FIG. 18): significantly higher
- average flux ([3]; nonionic surfactants with HLB below 12 (O3, O5) vs HLB above 12 (O10, O20), FIG. 20): increased
- hydrolytic degradation [4]: inhibits hydrolytic degradation

Structure (SMILES): Cc1cc2c(s1)Nc1ccccc1N=C2N1CCN(C)CC1 [olanzapine, 2-methyl-10-(4-methyl-1-piperazinyl)-4H-thieno-[2,3-b][1,5]benzo-diazepine]
- depletion ([2]; 5 wt. % olanzapine molecular solid suspension with Laureth-4, after about 24 hours): 100%
- increase in availability (average flux) at about 8-hour time point ([2]; 5 wt. % olanzapine molecular solid suspension with Laureth-4 vs comparators, FIG. 3): about 16 ×
- increase in slope for cumulative flux ([2]; 5 wt. % olanzapine, 5 wt. % Kollidon CLM, 20 wt. % Laureth-4, 70 wt. % Durotak 87-4098 vs formulations without Laureth-4, FIG. 4): approximately 1.2 ×
- depletion ([2]; other two olanzapine formulations (no Laureth-4), over 72 hours): 60%

Structure (SMILES): O=C1CC[C@H](N2Cc3c(OCc4ccc(CN5CCOCC5)cc4)cccc3C2=O)C(=O)N1 [iberdomide]
- water solubility [1]: less than 2 mg/mL

Structure (SMILES): C#C[C@]1(O)CC[C@H]2[C@@H]3CCc4cc(O)ccc4[C@H]3CC[C@@]21C [Ethinyl Estradiol]
- Water Sol [1]: ~0.1 mg/mL

Structure (SMILES): CN1C2CCCC1CC(NC(=O)c1nn(C)c3ccccc13)C2 (centres unmarked) [Granisetron]
- Water Sol [1]: ~40 mg/mL
- water solubility [1]: less than 0.1 mg/mL
